Test results reported in ChEMBL document CHEMBL4673280, “Discovery and SAR studies of 2-alkyl-3-phenyl-2,4,5,6,7,8-hexahydropyrazolo[3,4-d]azepines as 5-HT inhibitors leading to the identification of a clinical candidate” (Bioorg Med Chem Lett, 2021).

Legend:
[1] = molecular target: T1, Adrenergic receptor alpha-1 (Rattus norvegicus, UniProt P15823+P23944+P43140); test: Displacement of […] from alpha1 adrenergic receptor in rat cortex membrane incubated for 60 mins by competitive radioligand binding assay; type: cell membranes
T1 sequence (P15823 whole entry): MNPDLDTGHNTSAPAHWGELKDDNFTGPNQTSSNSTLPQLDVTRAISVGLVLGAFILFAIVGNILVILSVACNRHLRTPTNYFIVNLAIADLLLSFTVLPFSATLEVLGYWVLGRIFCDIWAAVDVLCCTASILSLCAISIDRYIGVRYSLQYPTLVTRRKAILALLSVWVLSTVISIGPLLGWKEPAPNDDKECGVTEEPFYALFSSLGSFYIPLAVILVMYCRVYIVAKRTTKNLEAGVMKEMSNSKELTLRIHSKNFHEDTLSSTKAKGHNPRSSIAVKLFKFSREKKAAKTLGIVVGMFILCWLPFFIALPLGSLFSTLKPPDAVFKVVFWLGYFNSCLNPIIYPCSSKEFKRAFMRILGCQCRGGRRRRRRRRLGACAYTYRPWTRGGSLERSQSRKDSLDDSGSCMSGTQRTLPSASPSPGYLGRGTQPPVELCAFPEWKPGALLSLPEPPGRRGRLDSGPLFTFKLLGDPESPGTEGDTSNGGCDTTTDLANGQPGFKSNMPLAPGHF
T1 sequence (P23944 whole entry): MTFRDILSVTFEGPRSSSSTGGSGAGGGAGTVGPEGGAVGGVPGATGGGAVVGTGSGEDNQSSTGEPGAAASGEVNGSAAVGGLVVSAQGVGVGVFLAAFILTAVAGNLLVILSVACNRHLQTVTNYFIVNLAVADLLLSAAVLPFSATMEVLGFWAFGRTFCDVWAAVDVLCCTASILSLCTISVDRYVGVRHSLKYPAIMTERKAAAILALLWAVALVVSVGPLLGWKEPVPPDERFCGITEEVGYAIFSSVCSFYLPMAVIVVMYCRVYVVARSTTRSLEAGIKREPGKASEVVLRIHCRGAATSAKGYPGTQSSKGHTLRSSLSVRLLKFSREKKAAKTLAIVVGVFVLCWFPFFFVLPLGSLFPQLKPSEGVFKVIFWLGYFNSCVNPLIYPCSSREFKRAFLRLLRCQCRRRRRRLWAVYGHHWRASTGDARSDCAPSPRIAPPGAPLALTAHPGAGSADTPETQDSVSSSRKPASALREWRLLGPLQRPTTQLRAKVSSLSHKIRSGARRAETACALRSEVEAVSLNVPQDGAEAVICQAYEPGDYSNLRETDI
T1 sequence (P43140 whole entry): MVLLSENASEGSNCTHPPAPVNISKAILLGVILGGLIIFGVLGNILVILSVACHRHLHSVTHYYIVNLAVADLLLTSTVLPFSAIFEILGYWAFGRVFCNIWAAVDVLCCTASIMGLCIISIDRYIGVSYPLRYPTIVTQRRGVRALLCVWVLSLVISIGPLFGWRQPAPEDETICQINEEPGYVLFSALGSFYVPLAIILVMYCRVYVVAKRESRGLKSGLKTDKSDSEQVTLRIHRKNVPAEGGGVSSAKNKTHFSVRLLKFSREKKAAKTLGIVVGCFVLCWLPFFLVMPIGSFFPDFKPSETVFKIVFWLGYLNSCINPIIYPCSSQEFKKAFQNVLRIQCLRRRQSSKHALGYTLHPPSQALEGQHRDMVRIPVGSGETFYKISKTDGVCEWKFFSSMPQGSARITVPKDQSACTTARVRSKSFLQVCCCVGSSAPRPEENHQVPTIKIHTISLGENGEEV

[2] = molecular target: T2, 5-hydroxytryptamine receptor 2C (Homo sapiens, UniProt P28335); test: Displacement of [3H]-ketanserin from human 5-HT2C receptor by competitive radioligand binding assay
T2 sequence (P28335 whole entry): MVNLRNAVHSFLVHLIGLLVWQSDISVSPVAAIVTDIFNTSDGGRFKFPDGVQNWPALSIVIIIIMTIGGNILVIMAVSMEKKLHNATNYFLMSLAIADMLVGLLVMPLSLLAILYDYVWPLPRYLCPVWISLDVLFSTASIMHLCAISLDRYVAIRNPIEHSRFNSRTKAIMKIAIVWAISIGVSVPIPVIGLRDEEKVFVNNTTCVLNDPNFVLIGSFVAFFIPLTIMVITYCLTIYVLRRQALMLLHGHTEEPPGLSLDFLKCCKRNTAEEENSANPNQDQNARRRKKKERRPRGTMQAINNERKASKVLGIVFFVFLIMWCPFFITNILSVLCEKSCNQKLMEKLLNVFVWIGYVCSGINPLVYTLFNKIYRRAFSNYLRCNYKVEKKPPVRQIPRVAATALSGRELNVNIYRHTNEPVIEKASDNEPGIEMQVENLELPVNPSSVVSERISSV

[3] = molecular target: 5-hydroxytryptamine receptor 2B (Homo sapiens, UniProt P41595); test: Displacement of [3H]-ketanserin from human 5-HT2B receptor by competitive radioligand binding assay
[4] = molecular target: 5-hydroxytryptamine receptor 2A (Homo sapiens, UniProt P28223); test: Displacement of [3H]-ketanserin from human 5-HT2A receptor by competitive radioligand binding assay
[5] = molecular target: 5-hydroxytryptamine receptor 7 (Rattus norvegicus, UniProt P32305); test: Displacement of [3H]-CT from rat 5-HT7 receptor expressed in HEK293 cells by competitive radioligand binding assay; type: cell-based
5-hydroxytryptamine receptor 7, sequence (P32305 whole entry): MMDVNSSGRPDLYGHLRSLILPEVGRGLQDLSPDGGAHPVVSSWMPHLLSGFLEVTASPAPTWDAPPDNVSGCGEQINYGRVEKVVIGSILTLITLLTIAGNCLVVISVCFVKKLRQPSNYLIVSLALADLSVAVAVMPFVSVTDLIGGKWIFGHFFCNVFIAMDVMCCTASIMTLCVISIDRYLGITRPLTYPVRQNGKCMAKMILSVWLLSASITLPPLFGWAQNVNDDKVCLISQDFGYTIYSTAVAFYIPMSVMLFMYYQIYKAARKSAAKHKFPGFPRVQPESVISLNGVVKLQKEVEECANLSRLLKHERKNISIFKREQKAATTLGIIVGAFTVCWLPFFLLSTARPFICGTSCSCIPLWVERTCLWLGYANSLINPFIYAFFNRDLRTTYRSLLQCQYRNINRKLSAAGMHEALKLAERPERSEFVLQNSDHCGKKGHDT

5-hydroxytryptamine receptor 2A, sequence (P28223 whole entry): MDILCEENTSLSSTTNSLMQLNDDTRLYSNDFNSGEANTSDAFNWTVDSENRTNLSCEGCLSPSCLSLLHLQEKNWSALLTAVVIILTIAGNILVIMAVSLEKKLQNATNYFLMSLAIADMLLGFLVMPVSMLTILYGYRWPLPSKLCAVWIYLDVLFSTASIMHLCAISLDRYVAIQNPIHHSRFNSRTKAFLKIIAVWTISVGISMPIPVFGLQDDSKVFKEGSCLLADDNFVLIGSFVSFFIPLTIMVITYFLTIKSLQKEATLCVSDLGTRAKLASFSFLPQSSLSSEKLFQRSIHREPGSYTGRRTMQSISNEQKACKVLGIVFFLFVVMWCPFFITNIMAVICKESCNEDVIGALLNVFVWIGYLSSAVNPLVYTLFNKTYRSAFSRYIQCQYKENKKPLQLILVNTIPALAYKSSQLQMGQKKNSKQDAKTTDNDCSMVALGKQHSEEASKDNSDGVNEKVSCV
5-hydroxytryptamine receptor 2B, sequence (P41595 whole entry): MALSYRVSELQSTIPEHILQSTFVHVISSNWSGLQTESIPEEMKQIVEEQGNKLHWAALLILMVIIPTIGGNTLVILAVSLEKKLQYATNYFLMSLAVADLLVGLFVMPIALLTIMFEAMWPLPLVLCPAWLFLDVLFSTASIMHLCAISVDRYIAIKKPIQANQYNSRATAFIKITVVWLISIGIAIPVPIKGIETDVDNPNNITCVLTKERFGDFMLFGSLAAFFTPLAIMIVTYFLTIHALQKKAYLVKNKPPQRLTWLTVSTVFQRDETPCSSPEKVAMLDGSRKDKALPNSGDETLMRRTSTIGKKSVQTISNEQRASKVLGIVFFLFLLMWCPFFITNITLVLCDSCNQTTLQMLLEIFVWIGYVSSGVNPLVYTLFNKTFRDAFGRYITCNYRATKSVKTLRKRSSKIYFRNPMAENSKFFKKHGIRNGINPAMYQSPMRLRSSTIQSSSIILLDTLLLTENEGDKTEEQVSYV

Ki [1] [nM]	Ki [2] [nM]	Ki [3] [nM]	Ki [4] [nM]	Ki [5] [nM]	Structure (SMILES)
220	45	4	1	–	Fc1ccc(-c2c3c(nn2C2CCC2)CCNCC3)cc1
10000	9000	15	600	150	c1ccc(-c2c3c(nn2-c2ccccc2)CCNCC3)cc1
–	–	–	6	–	Fc1ccc(-c2c3c(nn2C2CC2)CCNCC3)cc1
20	–	1	1	9	CC(C)n1nc2c(c1-c1ccc(Cl)cc1)CCNCC2
–	990	20	40	5000	CC(C)n1nc2c(c1-c1ccc(OC(F)(F)F)cc1)CCNCC2
